# Results published in patent publication US9206423B2, “Methods of modulating compliance of the trabecular meshwork” (The Regents of the University of California, priority 2012, dated 2015).
# Entries after “also recorded” stand apart in the source; their conditions may differ. Marks after values point to notes of the source that are not given here.
# Columns and labels:
# Type in all cases: cell-based, human
# CTGF mRNA = assay: qPCR for CTGF mRNA in primary HTM cells after Lat-B; settings: stiff (75 kPa) hydrogels, 3 donors, p=0.02
# Method: (§1) Hydrogel Fabrication. Polyacrylamide hydrogels mimicking the stiffness of the normal (5 kPa) and glaucomatous (75 kPa) HTM were prepared utilizing previously described procedures (McKee et al., 2011; Wood et al., 2011b). Briefly, hydrogels were fabricated and then sterilized with ultraviolet light and rinsed every 24 hours for at least 72 hours in Dulbecco's phosphate buffered solution (DPBS, Hyclone, Logan, Utah) to fully hydrate the hydrogels and to ensure removal of monomeric acrylamide since free acrylamide has been previously shown to disrupt cytoskeletal structure (Arocena, 2006). […]
# (§2) RNA Extraction and Quantitative Real-Time PCR. […] In order to control for slight variations in the amount of RNA loaded into the PCR reactions, the difference in cycle threshold (ΔCt) between the gene of interest (e.g. YAP) and the average cycle threshold (Ct) of the house keeping gene, 18S (ran in triplicate) were calculated. […] Ratios with respect to this control were calculated for all other values. The protein TAZ is encoded by the WWTR1 gene, for ease of reading, the mRNA obtained from the WWTR1 gene is designated as TAZ mRNA.
# 14-3-3σ mRNA = assay: Relative quantitative PCR for 14-3-3σ mRNA in primary HTM cells on hydrogels or TCP after Lat-B; settings: for Relative quantification of 14-3-3σ mRNA (mean ± SEM): 2 μM Lat-B, 1 h after treatment, TCP DMSO = 1.0; for 14-3-3σ mRNA expression versus DMSO: HTM 424 donor (FIG. 11); for level of 14-3-3σ mRNA: Example 3 (FIG. 16)
# Method: (§3) Hydrogel Fabrication. Polyacrylamide hydrogels mimicking the stiffness of the normal (5 kPa) and glaucomatous (75 kPa) HTM were prepared utilizing previously described procedures (McKee et al., 2011; Wood et al., 2011b). Briefly, hydrogels were fabricated and then sterilized with ultraviolet light and rinsed every 24 hours for at least 72 hours in Dulbecco's phosphate buffered solution (DPBS, Hyclone, Logan, Utah) to fully hydrate the hydrogels and to ensure removal of monomeric acrylamide since free acrylamide has been previously shown to disrupt cytoskeletal structure (Arocena, 2006). Following hydration, the hydrogels (10 mm) were adhered to TCP, stored in HTM cell medium, DME/F-12 medium containing 2.5 mM L-glutamine supplemented with 1% penicillin-streptomycin with amphotericin b (Lonza, Walkerville, Md.) and 10% fetal bovine serum (Atlanta Biologicals, Lawrence, Ga.), for 24 hrs and coated with a proprietary fibronectin/collagen (FNC) mixture (AthenaES, Baltimore, Md.) for 20 minutes. The elastic modulus of the hydrogels used were previously validated with atomic force microscopy at 4±2 kPa and 71±5 kPa for the 5 and 75 kPa gels respectively (McKee et al., 2011; Radmacher et al., 1992).
# (§4) HTM Cell Isolation and Culture. Primary HTM cells were isolated from corneoscleral rims considered unsuitable for transplant from donors with no prior history of ophthalmic disease as previously described (McKee et al., 2011; Rhee et al., 2003; Wood et al., 2011b). Isolated cells were cultured in HTM cell medium and all studies were conducted using cells prior to the eighth passage. HTM cells were plated at a density of 1.5 ×105 on FNC-coated TCP and 75 kPa hydrogels and 2.5×105 on FNC-coated 5 kPa hydrogels for 24 h prior to Lat-B treatment. The 5 kPa hydrogels were plated a higher density than the other substrates because HTM cells proliferate more slowly on the 5 kPa hydrogels (Wood et al., 2011a), and to ensure that there was enough mRNA present to perform PCR.
# (§5) Latrunculin-B Treatment. Lyophilized Lat-B (Cal Biochem, La Jolla, Calif.) was re-suspended to a final concentration of 2.5 mM in dimethyl sulfoxide (DMSO) (Fisher, Pittsburgh, Pa.). Fresh solutions of 2.0 μM Lat-B were prepared in serum free DPBS for all experiments. Control samples were treated with an equivalent concentration of DMSO in serum free DPBS.
# (§6) RNA Extraction and Quantitative Real-Time PCR. One hour after treatment with Lat-B or DMSO, RNA was extracted using the Qiagen RNeasy kit following the manufacturer's protocol (Qiagen, Valencia, Calif.). […] The cycle threshold (Ct) ranges were 11-22 for 18S, 23-27 for YAP, 23-34 for WWTR1, 27-32 for 14-3-3σ, 21-30 for CTGF and 17-23 for PAI-1. The 18S ribosomal RNA served as a reference. […] In order to control for slight variations in the amount of RNA loaded into the PCR reactions, the difference in cycle threshold (ΔCt) between the gene of interest (e.g. YAP) and the average cycle threshold (Ct) of the house keeping gene, 18S (ran in triplicate) were calculated. By calculating the difference in ΔCt between an experimental condition and the control condition (TCP DMSO), the experimental data was normalized to the control data. Ratios with respect to this control were calculated for all other values. The protein TAZ is encoded by the WWTR1 gene, for ease of reading, the mRNA obtained from the WWTR1 gene is designated as TAZ mRNA.
# TAZ mRNA = assay: qPCR for TAZ (WWTR1) mRNA in primary HTM cells after Lat-B
# Method: as §1, §2
# SPARC mRNA = SPARC mRNA in HTM cells on hydrogels or TCP after Lat B
# Method: (§7) Materials and methods similar to those in Examples 1 and 2 were used. Alternatively or additionally, at least some of the following methods were or can be used for the experiments described hereafter.
# (§8) Cell Culture. Primary HTM cells is obtained from normal human donor corneoscleral rims deemed not suitable for transplant (50). HTM cells are cultured in DMEM/F12 medium with 10% fetal bovine serum. Only cells before the 7th passage are used to conduct these studies. Only normal HTM cells are used because growth of cells from glaucomatous HTM is generally not robust enough to guarantee a successful completion of the experiment (51-54). Cells are plated onto hydrogels with Young's moduli of 5 kPa (homeomimetic) or 75 kPa (pathomimetic) that are fabricated to fit in a single well of a standard 6 well culture plate with 300,000 cells per surface. The cells are allowed to attach to the surfaces for 24 hours prior to subsequent experimentation.
# (§9) Fabrication of Hydrogel Substrates. Hydrogels are composed of 5.8% acrylamide/0.2% bisacrylamide (5 kPa) or 17.4% acrylamide/0.6% bisacrylamide (75 kPa). Each of the gels contains 4% (v/v) acrylamidoisopropyl trimethyl ammonium chloride. After polymerization, the gels are stored in phosphate buffered saline for two days to allow maximal swelling. One day prior to seeding of the cells on the hydrogels, culture medium with 10% fetal bovine serum is added to the gel to allow the hydrogel to be coated with the various proteins and components present in the serum. The Young's moduli of the hydrogels have been validated by atomic force microscopy (14, 55).
# (§10) Real-Time PCR. Real-time PCR is conducted with 70 ng of mRNA using a StepOne PCR machine. Reverse transcription is done for 30 minutes at 50° C. and subsequent PCR is done for 40 cycles of 15 seconds at 95° C. and 1 minute at 60° C.
# YAP mRNA = assay: Relative quantitative PCR for YAP mRNA in primary HTM cells on hydrogels or TCP after Lat-B; settings: for Relative quantification of YAP mRNA (mean ± SEM): 2 μM Lat-B, 1 h after treatment, TCP DMSO = 1.0; for YAP mRNA expression versus DMSO: HTM 424 donor (FIG. 8)
# Method: as §3, §4, §5, §6
# PAI-1 mRNA = assay: qPCR for PAI-1 mRNA in primary HTM cells after Lat-B; settings: 75 kPa hydrogels, all 3 donors
# Method: as §1, §2
# YAP = YAP immunofluorescence, nuclear/cytoplasmic localization in HTM cells after Lat-B; settings: Lat-B vs DMSO, one hour after treatment
# Method: Fixation and Immunofluoresence. One hour after treatment with Lat-B or DMSO, the cells were rinsed twice with warm DPBS and fixed in warm DPBS with 4% paraformaldehyde (Sigma-Aldrich, St. Louis, Mo.) for 20 min. They were rinsed twice more and permeabilized in DPBS with 0.5% Triton-X100 (Sigma-Aldrich, St. Louis, Mo.). They were rinsed and stored in DPBS until staining Rabbit anti-YAP (H-125, Santa Cruz Biotechnology, Santa Cruz, Calif.) was diluted in PBS containing 0.2% A-type cold fish gelatin (Sigma-Aldrich, St. Louis, Mo.) as a blocking agent. After primary staining, cells were rinsed twice in PBS. Dylight 594-conjugated goat anti-rabbit IgG (Thermo Scientific Pierce, Rockford, Ill.) was similarly diluted. After secondary staining, the cells were again rinsed, counterstained with DAPI (Life Technologies, Carlsbad, Calif.), rinsed a final time, and stored in PBS for imaging. Cells were imaged on an Axiovert 200 M (Carl Zeiss AG, Oberkochen, Germany) inverted microscope with a 20× objective. To mitigate background signal, images were filtered with a 77.5 μm rolling ball background and local median filtering (ImageJ, NIH, Bethesda, Md.).
# myocilin (MYOC) mRNA = assay: Myocilin mRNA in HTM cells on hydrogels or TCP after Lat B
# Method: as §7, §8, §9, §10
# [1] = HTM cells after Lat B treatment (Example 3)
# [2] = homeo- and pathomimetic hydrogels, Lat B 30 minutes, seven hours recovery, listed as Lat B
# [3] = homeo- and pathomimetic hydrogels, Lat B 30 minutes, seven hours recovery, listed as Latrunculin B
# [4] = tissue culture plastic (GPa), after Lat B treatment
smiles,measurement,setting,value
"C/C1=C/C(=O)O[C@@H]2C[C@@H](CC[C@H](C)/C=C\CC1)O[C@@](O)([C@@H]1CSC(=O)N1)C2 [Lat-B, Latrunculin-B]",CTGF mRNA expression versus DMSO,CTGF mRNA,significantly decreased; also recorded: significantly less
same,Relative quantification of 14-3-3σ mRNA (mean ± SEM),"14-3-3σ mRNA; HTM 211 cells, 5 kPa hydrogel",15 ± 0.82^a
same,Relative quantification of 14-3-3σ mRNA (mean ± SEM),"14-3-3σ mRNA; HTM 211 cells, 75 kPa hydrogel","29 ± 1.8^b, †"
same,Relative quantification of 14-3-3σ mRNA (mean ± SEM),"14-3-3σ mRNA; HTM 211 cells, TCP (>1 GPa)",1.2 ± 0.25^c
same,Relative quantification of 14-3-3σ mRNA (mean ± SEM),"14-3-3σ mRNA; HTM 424 cells, 5 kPa hydrogel","4.8 ± 0.12^a, †"
same,Relative quantification of 14-3-3σ mRNA (mean ± SEM),"14-3-3σ mRNA; HTM 424 cells, 75 kPa hydrogel","5.6 ± 0.51^a, †"
same,Relative quantification of 14-3-3σ mRNA (mean ± SEM),"14-3-3σ mRNA; HTM 424 cells, TCP (>1 GPa)",0.73 ± 0.20^b ^
same,Relative quantification of 14-3-3σ mRNA (mean ± SEM),"14-3-3σ mRNA; HTM 431 cells, 5 kPa hydrogel",1.09 ± 0.02^a ^
same,Relative quantification of 14-3-3σ mRNA (mean ± SEM),"14-3-3σ mRNA; HTM 431 cells, 75 kPa hydrogel","1.57 ± 0.11^b, †"
same,Relative quantification of 14-3-3σ mRNA (mean ± SEM),"14-3-3σ mRNA; HTM 431 cells, TCP (>1 GPa)","0.53 ± 0.02^c, †"
same,14-3-3σ mRNA expression versus DMSO,14-3-3σ mRNA; cells grown on TCP,did not have significantly different
same,14-3-3σ mRNA expression versus DMSO,14-3-3σ mRNA; cells grown on hydrogels,significantly more
same,level of 14-3-3σ mRNA,14-3-3σ mRNA; softer (homeomimetic) hydrogels,no effect
same,level of 14-3-3σ mRNA,"14-3-3σ mRNA; stiffer (pathomimetic) hydrogels, listed as Lat B",increased
same,level of 14-3-3σ mRNA,"14-3-3σ mRNA; stiffer (pathomimetic) hydrogels, listed as Latrunculin B",doubled
same,14-3-3σ expression versus DMSO,"14-3-3σ mRNA; stiffer hydrogels, all three donors (HTM 211, 424, 431)",markedly increased
same,decrease of TAZ mRNA levels,TAZ mRNA; [1],1.9 fold
same,TAZ mRNA versus DMSO,"TAZ mRNA; stiff (75 kPa) hydrogels, 3 donors, P=0.11",trend towards less; also recorded: markedly less
same,SPARC mRNA levels,SPARC mRNA; [2],significantly reduced
same,SPARC mRNA levels,SPARC mRNA; [3],significantly decreased
same,SPARC mRNA levels,SPARC mRNA; [4],no change
same,YAP mRNA versus DMSO,"YAP mRNA; 75 kPa hydrogels, one hour after treatment, all three donors, p<0.05",significantly less
same,Relative quantification of YAP mRNA (mean ± SEM),"YAP mRNA; HTM 211 cells, 5 kPa hydrogel",0.33 ± 0.01^a ^
same,Relative quantification of YAP mRNA (mean ± SEM),"YAP mRNA; HTM 211 cells, 75 kPa hydrogel","0.06 ± 0.01^b, †"
same,Relative quantification of YAP mRNA (mean ± SEM),"YAP mRNA; HTM 211 cells, TCP (>1 GPa)","0.48 ± 0.0^c, †"
same,Relative quantification of YAP mRNA (mean ± SEM),"YAP mRNA; HTM 424 cells, 5 kPa hydrogel","0.79 ± 0.06^a, †"
same,Relative quantification of YAP mRNA (mean ± SEM),"YAP mRNA; HTM 424 cells, 75 kPa hydrogel","0.59 ± 0.05^a, †"
same,Relative quantification of YAP mRNA (mean ± SEM),"YAP mRNA; HTM 424 cells, TCP (>1 GPa)",1.3 ± 0.39^a
same,Relative quantification of YAP mRNA (mean ± SEM),"YAP mRNA; HTM 431 cells, 5 kPa hydrogel","1.6 ± 0.01^a, †"
same,Relative quantification of YAP mRNA (mean ± SEM),"YAP mRNA; HTM 431 cells, 75 kPa hydrogel","0.83 ± 0.05^b, †"
same,Relative quantification of YAP mRNA (mean ± SEM),"YAP mRNA; HTM 431 cells, TCP (>1 GPa)","0.55 ± 0.02^c, †"
same,decrease of YAP mRNA levels,YAP mRNA; [1],1.8 fold
same,YAP mRNA expression versus DMSO,YAP mRNA; cells grown on TCP,did not have significantly different
same,YAP mRNA expression versus DMSO,YAP mRNA; cells grown on hydrogels,significantly less
same,PAI-1 mRNA expression versus DMSO,PAI-1 mRNA,less and decreased
same,YAP in the nucleus (nuclear localization),YAP; 5 kPa hydrogel,dramatic reduction
same,YAP nuclear localization,YAP; TCP,some nuclear localization remained
same,MYOC mRNA levels,myocilin (MYOC) mRNA; [2],significantly reduced
same,MYOC mRNA levels,myocilin (MYOC) mRNA; [3],significantly decreased
same,MYOC mRNA levels,myocilin (MYOC) mRNA; [4],no change
